Data set [1] concerns Rattus norvegicus. The data set is described as follows: Antihypertensive activity in iv dosed salt depleted SHR rat model assessed as reduction of angiotensin 2-induced response. It is filed as functional.
Data set [2] has as its system Rattus norvegicus. In words: Inhibition of angiotensin 2-induced response in iv dosed conscious Sprague-Dawley rat. The format is functional.
Data set [3] in a line: Displacement of [125I]-Sar1Ile8-angiotensin 2 from angiotensin AT1 receptor in rat aortic smooth muscle cells. (In general: Loss of bound radioactivity is the signal in a displacement assay; it reports binding, not function.)
The nature of data set [4]: Displacement of [125I]-Sar1Ile8-angiotensin 2 from angiotensin AT1 receptor in rat adrenal cortical membranes. The format is cell membranes, Membrane.
In data set [5] the test system is Rattus norvegicus. In words: Antihypertensive activity in iv dosed salt depleted SHR rat model assessed as reduction of angiotensin 2-induced mean arterial pressure at […]. It is filed as functional, Artery. Also noted: scale not given: the % may be the effect or the level left.
In data set [6] the target is T1, Type-1 angiotensin II receptor (Homo sapiens, UniProt P30556).
T1 sequence (P30556 whole entry): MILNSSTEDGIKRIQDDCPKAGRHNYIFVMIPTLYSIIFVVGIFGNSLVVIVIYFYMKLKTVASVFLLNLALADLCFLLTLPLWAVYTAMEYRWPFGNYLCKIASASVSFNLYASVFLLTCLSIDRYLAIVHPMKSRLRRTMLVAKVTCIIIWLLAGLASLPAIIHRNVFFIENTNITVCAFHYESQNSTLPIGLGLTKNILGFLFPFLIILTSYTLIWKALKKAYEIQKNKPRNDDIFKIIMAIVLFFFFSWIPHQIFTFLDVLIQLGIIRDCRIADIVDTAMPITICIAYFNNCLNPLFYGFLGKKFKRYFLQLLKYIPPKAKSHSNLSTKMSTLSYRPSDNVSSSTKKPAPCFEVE
The data set is described as follows: Displacement of [3H]-angiotensin 2 from angiotensin AT1 receptor.

Data set [7] concerns Rattus norvegicus. In words: Cardiotoxicity in left renal artery-ligated hypertensive rat model assessed as reduction of heart rate at 1 to 10 mg/kg, po for 6 days. Also noted: dose 1-10 mg/kg, route oral; scale not given: the % may be the effect or the level left. It is filed as toxicity, organism-based. Conditions: in vivo, 144 h.
Data set [8] has as its system Rattus norvegicus. The data set is described as follows: Cardiotoxicity in left renal artery-ligated hypertensive rat model assessed as reduction of heart rate at 0.3 to 3 mg/kg, administered intra-arterially for 6 days. The settings on record: in vivo, other, 144 h. It is filed as toxicity, organism-based. Also on record: dose 0.3-3 mg/kg; scale not given: the % may be the effect or the level left.

The test system of data set [9] is Rattus norvegicus. In words: Antihypertensive activity in conscious normotensive rat assessed as inhibition of angiotensin 2-induced pressor response at 1 mg/kg, iv after 6 hrs. The format is functional.
Data set [10] is filed under the species Rattus norvegicus. The data set is described as follows: (§1) Displacement of radiolabeled angiotensin2 from angiotensin AT1 receptor in rat adrenal cortex membranes. It is filed as cell membranes. The settings on record: Membrane, concentration not given here.
Data set [11] addresses T2, Type-1 angiotensin II receptor (Oryctolagus cuniculus, UniProt P34976).
T2 sequence (P34976 whole entry): T1 sequence (P30556 whole entry) with I2M, V49A, I254V, I270V, R272H, R311K, T349S, A353V
In words: Antagonist activity at angiotensin AT1 receptor in rabbit aortic strip assessed as inhibition of angiotensin 2-induced contractile response. It is filed as functional. The settings on record: read-out: pA2 (converted).

Data set [12] addresses T2, Type-1 angiotensin II receptor. In words: Antagonist activity at angiotensin AT1 receptor in rabbit adrenal cortex assessed as inhibition of angiotensin 2-induced […] response. The format is functional, tissue-based.
Data set [13] addresses T1, Type-1 angiotensin II receptor. In words: Antagonist activity at angiotensin AT1 receptor. The format is functional.
Data set [14] concerns Rattus norvegicus. The data set is described as follows: Inhibition of angiotensin 2-induced response in intraduodenally dosed pithed normotensive rat. It is filed as functional.
Data set [15] has as its system Rattus norvegicus. In words: Antihypertensive activity in conscious normotensive rat after 24 hrs. It is filed as functional.
Data set [16] has as its target T2, Type-1 angiotensin II receptor. In words: Binding affinity to angiotensin AT1 receptor in rabbit aortic rings.
The nature of data set [17]: Displacement of [125I]-angiotensin 2 from angiotensin AT1 receptor in rat liver membranes. It is filed as cell membranes, Membrane.
Data set [18] relates to Rattus norvegicus. In words: Antihypertensive activity in iv dosed anesthetized ganglionic blocked rat model assessed as reduction of angiotensin 2-induced response. The format is functional, organism-based.
Data set [19] can be described thus: as §1. The format is cell membranes, Membrane.
The subject of data set [20] is Rattus norvegicus. In words: Antihypertensive activity in iv dosed renal hypertensive rat model. Conditions: read-out: ID50 (the source's name). It is filed as functional.
Data set [21] relates to Rattus norvegicus. In words: Antihypertensive activity in po dosed renal hypertensive rat model. The format is functional. Conditions: read-out: ID50 (the source's name).
Data set [22] addresses T3, Type-1 angiotensin II receptor (Bos taurus, UniProt P25104).
T3 sequence (P25104 whole entry): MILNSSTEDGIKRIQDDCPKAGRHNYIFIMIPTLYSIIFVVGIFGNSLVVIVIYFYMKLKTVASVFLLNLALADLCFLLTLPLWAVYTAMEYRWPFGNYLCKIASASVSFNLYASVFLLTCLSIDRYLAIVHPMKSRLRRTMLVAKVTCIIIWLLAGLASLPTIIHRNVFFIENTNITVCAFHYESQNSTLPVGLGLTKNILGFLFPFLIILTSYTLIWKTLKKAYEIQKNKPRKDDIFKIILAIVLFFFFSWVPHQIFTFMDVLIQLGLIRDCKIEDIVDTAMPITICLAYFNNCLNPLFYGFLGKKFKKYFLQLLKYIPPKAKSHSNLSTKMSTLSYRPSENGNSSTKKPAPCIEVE
The data set is described as follows: Displacement of radiolabeled angiotensin 2 from angiotensin AT1 receptor in bovine adrenal cortex membranes. The format is cell membranes, Membrane.

Data set [23] deals with T4, Type-1 angiotensin II receptor (Cavia porcellus) (UniProt Q9WV26).
T4 sequence (whole entry): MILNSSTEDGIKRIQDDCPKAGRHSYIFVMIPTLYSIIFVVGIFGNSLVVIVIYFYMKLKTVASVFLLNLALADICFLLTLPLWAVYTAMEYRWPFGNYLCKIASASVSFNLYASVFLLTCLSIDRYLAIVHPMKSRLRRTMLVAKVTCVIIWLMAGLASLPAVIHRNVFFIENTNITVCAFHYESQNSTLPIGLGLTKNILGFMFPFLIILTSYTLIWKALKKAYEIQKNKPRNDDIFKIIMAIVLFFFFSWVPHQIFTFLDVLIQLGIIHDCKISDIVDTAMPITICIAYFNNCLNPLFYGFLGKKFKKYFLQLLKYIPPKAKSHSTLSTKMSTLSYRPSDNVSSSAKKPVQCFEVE
The data set is described as follows: Antagonist activity at angiotensin AT1 receptor in guinea pig aorta assessed as reduction of angiotensin 2-induced contractile response. The format is functional, tissue-based.

Data set [24] in a line: Displacement of [3H]-angiotensin 2 from angiotensin AT1 receptor in rat liver membranes. The format is cell membranes, Membrane.
Data set [25] has as its target T5, Type-1 angiotensin II receptor (Oryctolagus cuniculus) (UniProt P34976).
T5 sequence (whole entry): T1 sequence (P30556 whole entry) with I2M, V49A, I254V, I270V, R272H, R311K, T349S, A353V
In words: Antagonist activity at angiotensin AT1 receptor in rabbit aorta. It is filed as functional, tissue-based.

For data set [26], the system named is Rattus norvegicus. In words: Antihypertensive activity in po dosed conscious rat. The format is functional. Conditions: read-out: ED50.
Data set [27] has as its system Rattus norvegicus. In words: Antihypertensive activity in iv dosed conscious rat. The format is functional.
Data set [28] deals with Rattus norvegicus. The data set is described as follows: Antihypertensive activity in iv dosed renal hypertensive rat model assessed as reduction of blood pressure. The format is functional.
In data set [29] the test system is Rattus norvegicus. The data set is described as follows: Antihypertensive activity in po dosed renal hypertensive rat model assessed as reduction of blood pressure. It is filed as functional.

Positions count from the first letter of the chain named.

Turning to `CCCCc1nc(Cl)c(C(=O)[O-])n1Cc1cccc2c1ccn2-c1ccccc1-c1nn[n-]n1.[Li+].[Li+]`, the values for the ED50 in data set [1] and in data set [2] were 0.03 µmol/kg and 0.22 µmol/kg, respectively. Moreover, the Ki (as a rule, the dissociation constant of the complex between target and ligand, obtained from inhibition or displacement) in data set [3] came to 7.6 nM; in [4] it was 18.4 nM. The Activity in data set [5] stood at 39%.

`CCCCc1nc(Cl)c(C(=O)O)n1Cc1ccc2oc(-c3ccccc3-c3nn[nH]n3)c(Br)c2c1` [ZOLASARTAN]: in [6], affinity was put at a Ki of 2 nM. The Activity in data set [7] and in data set [8] was less than 15% each time.

With `CCCCc1nn(-c2ccccc2C(F)(F)F)c(=O)n1Cc1ccc(-c2ccccc2-c2nn[nH]n2)cc1`, in [9], the inhibition in vivo (as a rule, the relative decrease from the control value, in per cent) at 1 mg/kg was 70%.

Take `CCCc1nc(C)n(CCO)c(=O)c1Cc1ccc(-c2ccccc2-c2nnn[nH]2)cc1`: in [10], the inhibition (in general, the percentage by which the read-out fell short of the control) is 60%.

In the case of `CCOC(=O)/C=C1\N(Cc2ccc(-c3ccccc3-c3nn[nH]n3)cc2)C(=O)CC1(CC)CC`, in [11], the Kb is 12.6 nM. In addition, the IC50 in data set [12] turned out to be 100 nM.

Regarding `CC1CC(=O)NN=C1c1ccc2nc(C3CC3)n(Cc3ccc(-c4ccccc4-c4nn[nH]n4)cc3)c2c1` (stereo not given), the IC50 in data set [13] came out at 1.8 nM. Moreover, in data set [14], the “inhibition (INH)” value turned out to be 80%.

`CCCc1nn(Cc2ccccc2)c(C(=O)O)c1Cc1ccc(-c2ccccc2-c2nn[nH]n2)cc1` showed an Activity in data set [15] of 90%.

As for `CCc1nc2c(C)cc(C)nc2n1Cc1ccc2c(c1)CCN2C(c1ccccc1)c1nnn[nH]1` (stereo not given), the IC50 in data set [16] is 1 nM.

`CCc1nc2c(C)cc(C)nn2c1Cc1ccc(-c2ccccc2-c2nn[nH]n2)cc1`: in [9], the inhibition in vivo at 1 mg/kg was 90%.

With `CCCc1nc(-n2cccc2C(=O)C(F)(F)F)c(C(=O)O)n1Cc1ccc(-c2ccccc2-c2nn[nH]n2)cc1`, the IC50 was 0.8 nM in data set [17] and 6.2 mg/kg in data set [18].

As for `CCCCc1nc(SC)c(C(=O)O)n1Cc1ccc(-c2ccccc2-c2nnn[nH]2)cc1`, the IC50 in data set [19] was 0.2 nM. The ED50 in data set [20] was 0.05 mg/kg; in data set [21], 0.4 mg/kg.

`CCCc1nc(C(C)(C)O)c(C(=O)O)n1Cc1ccc(-c2ccccc2-c2nnn[nH]2)cc1` [OLMESARTAN] had an IC50 in data set [22] of 7.7 nM. Moreover, in [23], the pD2 is 9.9.

Turning to `CCc1nc(C2CC2)c(C(N)=O)n1Cc1ccc2oc(-c3ccccc3NS(=O)(=O)C(F)(F)F)c(Br)c2c1`, the pKi (as a rule, −log10 of the Ki, conventionally taken in molar units) in data set [24] is 9.3. Also, the pKb – broadly, the Kb on a negative log10 scale, so that one unit is a factor of ten – in data set [25] amounted to 9.

As for `CCCCc1nc2ccc(NC(=O)N(C)C(C)C)cc2c(=O)n1Cc1ccc(-c2ccccc2-c2nn[nH]n2)cc1`, the figures for the ED50 in [26] and in [27] were 0.68 mg/kg and 0.25 mg/kg, respectively.

For the molecule `CCCc1nc(CN2CCN(c3ccccn3)CC2)c(C(=O)O)n1Cc1ccc(-c2ccccc2-c2nn[nH]n2)cc1`, the ED50 in [28] was determined as 0.18 mg/kg; in data set [29] it was 1.65 mg/kg.

For the origin of these results see ChEMBL document CHEMBL1667742, “Angiotensin II receptor type 1 (AT1) selective nonpeptidic antagonists--a perspective” (Bioorg Med Chem, 2010).
